Tests used:
NCI-H28 cells = assay: Proliferation and cell viability assay, Cell Titer One; assay type: cell-based; details: Homo sapiens, NCI-H28, 144 h; Cell Titer One assay, non-responder, 6 days
Procedure: Cell proliferation of a TEAD dependent NF2-null mesothelioma cell line, NCI-H226 was assayed using two different protocols. Results were confirmed in two different TEAD-non-dependent lung cancer cell lines, H23 and H28, were used as non-responsive controls, as indicated:
b) Cell Titer One (Promega, #G3582). The effect of the TEAD inhibitors disclosed herein on cell proliferation was also determined using the Promega Substrate Cell Titer Aqueous One Solution Reagent. The TEAD inhibitors were evaluated for the effects on cell proliferation responder (H226) and non-responder negative control cancer cell lines (CAMA1, H28), as well as non-transformed normal human cells (HUVEC, NHDF). Dissociated cells were resuspend in media (depending on cell line, either in DMEM, RPMI, or EMEM all with 10% FBS, with gentamicin as an antibiotic). Cells were seeded at 100 μL/well at 750 cells per well in 96-well plates and allowed to settle and attach. After an incubation of 24 hrs (37° C., 5% CO2, humidified incubator), 100 μL of test compound-containing media was added. A dilution series of 2000× concentrated stock of test compounds was prepared in DMSO, for final concentrations from 0.1 to 10,000 nM. After addition of test compound-containing media, cells were incubated for 6 days at 37° C., 5% CO2, humidified incubators). […] The OD was measured using Vmax [Molecular Devices] spectrophotometer plate reader. […]

[1] = test system: NCI-H226 lung tumor model; assay: Mouse xenograft NCI-H226 tumors; assay type: in vivo, NOD SCID mice
Text: This study evaluated the in vivo anti-tumor efficacy of test compounds in NOD SCID mice for treatment of NCI-H226 lung tumor model.
• Species: Mus Musculus • Strain: NOD SCID • Age: 6-8 weeks • Sex: female • Body weight: 18-22 g • Number of animals inoculated with tumor: 69 mice • Number of animals enrolled in the treatment: 40 mice • Number of unenrolled animals: 29 mice • Animal supplier: Beijing Vital River Biotechnology Experimental Animal Co. Ltd Certification number: 20221110Abzz0619000681
The NCI-H226 tumor cells were maintained in vitro in RPMI 1640 medium supplemented with 10% Fetal bovine serum and 1% Antibiotic-Antimycotic at 37° C. in an atmosphere of 5% CO2 in air. The tumor cells were routinely subcultured twice weekly by trypsin-EDTA. The cells growing in an exponential growth phase were harvested and counted for tumor inoculation.
Each mouse was inoculated subcutaneously at the right flank with NCI-H226 tumor cells (10×10^6+50% matrigel/0.2 mL) for tumor development. Animals were marked with earrings with unique 6 significant figure number for identification. The treatments were started when the average tumor volume reached an average size of 154 mm^3.
The major endpoint was to determine if the tumor growth could be delayed or mice could be cured. Tumor volume was measured twice a week in two dimensions using a caliper, and the volume was expressed in mm^3 using the formula: V=0.5 a×b^2 where a and b are the long and short diameters of the tumor, respectively. The tumor size was then used for calculations of T/C value. The TGI value (in percent) or the T/C value (in percent) is an indication of antitumor effectiveness; T and C are the mean tumor volumes or tumor weights of the treated and control groups, respectively, on a given day.
TGI was calculated for each group using the formula: TGI (%)=[1−(Ti−T0)/(Vi−V0)]×100; Ti is the average tumor volume of a treatment group on a given day, T0 is the average tumor volume of the treatment group on the day of treatment start, Vi is the average tumor volume of the vehicle control group on the same day with T1, and V0 is the average tumor volume of the vehicle group on the day of treatment start.
Relative T/C (%)=TRTV/CRTV×100 (RTV (%)=Vt/V0×100, Vt is the average tumor volume on a given day, V0 is the average tumor volume on the first day of treatment. TRTV is the RTV of a treatment group, and the CRTV is the RTV of the vehicle control group.)
Tumor weight was measured at the study termination. The Tweight/Cweight value (in percent) was calculated according to the formula: Tweight/Cweight (%)=TWtreatment/TWvehicle×100, where T and C are the mean tumor weights of the treatment and control groups respectively
Summary statistics, including mean and the standard error of the mean (SEM), were provided for the tumor volume of each group at each time point.
Statistical analysis of difference in tumor volume among the groups was conducted on the data obtained at the end of the study.
One-tailed T test was performed to compare tumor volumes between two groups. All data were analyzed using GraphPad Prism 6.0. p<0.05 is considered to be statistically significant.
The antitumor effectiveness of the study was analyzed on PG-D28 when vehicle group reached 472 mm^3.

Compound: Cn1cnc(-c2cc([C@@]3(C)CCNC3=O)ccc2Nc2ccc(C(F)(F)F)cc2)c1 (single isomer, unassigned) [Compound 5, 3-methyl-3-(3-(1-methyl-1H-imidazol-4-yl)-4-((4-(trifluoromethyl)phenyl)amino)phenyl)pyrrolidin-2-one]
- IC50 (NCI-H28 cells): > 1000 nM
- Tumor size (mean ± SEM) ([1]; day 0, 5 mg/kg, PO BID): 154 ± 13 mm^3
- Tumor size (mean ± SEM) ([1]; day 0, 15 mg/kg, PO BID): 154 ± 15 mm^3
- Tumor size (mean ± SEM) ([1]; day 0, 15 mg/kg, PO QD): 154 ± 15 mm^3
- Tumor size (mean ± SEM) ([1]; day 4, 5 mg/kg, PO BID): 140 ± 10 mm^3
- Tumor size (mean ± SEM) ([1]; day 4, 15 mg/kg, PO BID): 127 ± 14 mm^3
- Tumor size (mean ± SEM) ([1]; day 4, 15 mg/kg, PO QD): 153 ± 11 mm^3
- Tumor size (mean ± SEM) ([1]; day 7, 5 mg/kg, PO BID): 129 ± 5 mm^3
- Tumor size (mean ± SEM) ([1]; day 7, 15 mg/kg, PO BID): 115 ± 12 mm^3
- Tumor size (mean ± SEM) ([1]; day 7, 15 mg/kg, PO QD): 149 ± 11 mm^3
- Tumor size (mean ± SEM) ([1]; day 10, 5 mg/kg, PO BID): 124 ± 6 mm^3
- Tumor size (mean ± SEM) ([1]; day 10, 15 mg/kg, PO BID): 110 ± 10 mm^3
- Tumor size (mean ± SEM) ([1]; day 10, 15 mg/kg, PO QD): 148 ± 12 mm^3
- Tumor size (mean ± SEM) ([1]; day 13, 5 mg/kg, PO BID): 82 ± 8 mm^3
- Tumor size (mean ± SEM) ([1]; day 13, 15 mg/kg, PO BID): 84 ± 8 mm^3
- Tumor size (mean ± SEM) ([1]; day 13, 15 mg/kg, PO QD): 116 ± 26 mm^3
- Tumor size (mean ± SEM) ([1]; day 17, 5 mg/kg, PO BID): 77 ± 7 mm^3
- Tumor size (mean ± SEM) ([1]; day 17, 15 mg/kg, PO BID): 62 ± 6 mm^3
- Tumor size (mean ± SEM) ([1]; day 17, 15 mg/kg, PO QD): 94 ± 15 mm^3
- Tumor size (mean ± SEM) ([1]; day 20, 5 mg/kg, PO BID): 73 ± 6 mm^3
- Tumor size (mean ± SEM) ([1]; day 20, 15 mg/kg, PO BID): 63 ± 7 mm^3
- Tumor size (mean ± SEM) ([1]; day 20, 15 mg/kg, PO QD): 95 ± 16 mm^3
- Tumor size (mean ± SEM) ([1]; day 24, 5 mg/kg, PO BID): 55 ± 4 mm^3
- Tumor size (mean ± SEM) ([1]; day 24, 15 mg/kg, PO BID): 49 ± 4 mm^3
- Tumor size (mean ± SEM) ([1]; day 24, 15 mg/kg, PO QD): 85 ± 8 mm^3
- T/C ([1]; day 28, 5 mg/kg, PO BID): 11.2%
- TGI ([1]; day 28, 5 mg/kg, PO BID): 131.3%
- Tumor size (mean ± SEM) ([1]; day 28, 5 mg/kg, PO BID): 53 ± 5 mm^3
- Tumor Volume (mean ± SEM) ([1]; day 28, 5 mg/kg, PO BID (Table 20)): 53 ± 5 mm^3
- T/C ([1]; day 28, 15 mg/kg, PO BID): 9.0%
- TGI ([1]; day 28, 15 mg/kg, PO BID): 134.2%
- Tumor size (mean ± SEM) ([1]; day 28, 15 mg/kg, PO BID): 43 ± 6 mm^3
- Tumor Volume (mean ± SEM) ([1]; day 28, 15 mg/kg, PO BID (Table 20)): 43 ± 6 mm^3
- T/C ([1]; day 28, 15 mg/kg, PO QD): 17.0%
- TGI ([1]; day 28, 15 mg/kg, PO QD): 122.3%
- Tumor size (mean ± SEM) ([1]; day 28, 15 mg/kg, PO QD): 82 ± 12 mm^3
- Tumor Volume (mean ± SEM) ([1]; day 28, 15 mg/kg, PO QD (Table 20)): 82 ± 12 mm^3

Reference: patent US20260317304A1, “TEAD INHIBITORS AND METHODS OF USE” (Sporos BioDiscovery, Inc., priority 2022, published 2026)
